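48-hour exposure; five concentrations; linearly interpolated endpoints. TGI denotes the concentration required for complete inhibition of growth.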
How the values were obtained:
Test in all cases: DTP human tumour cell line panel, 48 h
[1] = tested on: SN12C renal
[2] = tested on: NCI-H460 lung
[3] = tested on: U251 CNS
[4] = tested on: EKVX NSCLC
[5] = tested on: SK-MEL-5 melanoma
[6] = tested on: HT29 colon
[7] = tested on: SW-620 colon
[8] = tested on: MDA-N
[9] = tested on: KM12 colon
[10] = tested on: OVCAR-4 ovarian

Compound	TGI [1] [µM]	TGI [2] [µM]	TGI [3] [µM]	TGI [4] [µM]	TGI [5] [µM]	TGI [6] [µM]	TGI [7] [µM]	TGI [8] [µM]	TGI [9] [µM]	TGI [10] [µM]
CC(=O)Nc1ncc(Sc2ccccc2C(=O)O)s1	> 100	> 100	> 100	> 100	> 100	> 100	> 100	> 100	> 100	
Cc1c(-c2cc3n(n2)C(c2cccs2)C(C#N)=C(c2ccccc2)N3)c(=O)n(-c2ccccc2)n1C (stereo not drawn)	> 100	> 100	> 90.8	> 100	> 85.8	> 100	> 100		> 100	> 100
O=C1OC(c2ccc(O)c(Cl)c2)(c2ccc(O)c(Cl)c2)c2ccc(Br)c3cccc1c23 (tested in a mixture with another compound)	32	34.7	38.2	29.3	31.3	29.3	41.1	45.9	42.2	11.6
O=C(Oc1ccccc1)c1cc2cc(CCl)ccc2oc1=O	67.4	51.6	> 100	38.5	27.5	> 100	> 100	> 100	> 100	68.9
C=C(C=O)c1c2c(nc3ccccc13)C(=O)c1ccccc1C2=O	41.3		> 100	3.61	0.339				2.71	
O=C1c2cc3ccccc3cc2C2(c3ccc(Cl)cc3)N[C@H]3CCCC[C@@H]3N12 (stereo partly drawn)	43.8	47.3	30.1	26.8	42.8	53.5	59.3	57.8	48.2	21.3
CCP(=O)(CC)C(Cl)(Cl)C(O)C(C)(C)C (stereo not drawn)	> 100	> 100	> 100		> 100	> 100	> 100	> 100		> 100
NC1CC(=O)c2csc(Br)c21 (stereo not drawn)	> 44.3	> 67.4	> 60	33.1	> 59.2	43.8	24.8	28.4	> 57.9	30.5
C=C1c2c(cc3c(c2O)c(=O)c2ccccc2n3C)OC1(C)C	> 100	> 100	> 100	> 100	> 100	> 100	> 100			
COc1ccc(Cc2nc3cc(C(F)(F)F)ccc3n2CCCN(C)C)cc1		46.7	31.9	65.4	30.1	39.9	44.7		30.3	80.4
COc1cc(N=NN(C)C)c(C(C)c2c3cc(OC)c(OC)cc3cc[n+]2C)cc1OC (stereo not drawn)	> 100	> 100	> 100	> 100	56.8	> 100	> 100	> 100	54.6	> 100
C/C(=N\Nc1ccc([N+](=O)[O-])cc1[N+](=O)[O-])c1ccc2ccccc2n1	> 100	> 100	> 100	> 100	> 100	> 100	> 100	> 100	> 100	
c1ccc(N=C2SC(=NNc3ccccc3)SC2=Nc2ccccc2)cc1	> 100	> 100	> 100	> 100	> 100	> 100	> 100	> 100	> 100	> 100
O=P(O)(O)C(O)/C=C/c1ccccc1 (stereo not drawn)	> 100	> 100	> 100	> 100	> 100	> 100	> 100	> 100	> 100	> 100
O=P(O)(O)C(CSc1ccccc1)P(=O)(O)O	> 100	> 100	> 100	> 100	> 100	> 100	> 100		> 100	> 100
O=C(O)CSCC(=O)Nc1ccc2cccc3c2c1CC3	> 100		> 100	> 100	> 100	> 100	> 100	> 100	> 100	> 100
CCCNC(=S)N/N=C/c1cccc(C)n1	> 100		> 100	> 100	> 100	> 100		> 100	> 100	> 100
COc1ccc2c3c1OC1C(=O)C=CC4(O)C(C2)NCC[C@@]314 (stereo partly drawn)	4.42	13.2	7.15	7.95	16.4	11.7	5.81	4.91	8.59	12.9
Cc1cccc(Nc2cn(COCc3ccccc3)c(=O)[nH]c2=O)c1	> 100	> 100	> 100	> 100	> 100	> 100	> 100	> 100	> 100	> 100
COc1ccc(/C=C2\CSC/C(=C\c3ccc(OC)c(OC)c3OC)C2=O)c(OC)c1OC	78.2	> 100	> 100	> 100	88.6	> 100	58.6	> 100	> 100	
CC(C)(C)[Si](C)(C)OCCCC#CCO	> 100	> 100	> 100	> 100	> 100	> 100	> 100		> 100	> 100
CCc1n[nH]c(=O)n1N1C(=O)C2CC=CCC2C1=O (stereo not drawn)	> 100	> 100	> 100	> 100	> 100	> 100	> 100	> 100	> 100	> 100
NC(=O)CCC(NCc1c2ccccc2[n+]([O-])c2ccccc12)C(=O)O (stereo not drawn)	> 100	> 100	> 100	> 100	> 100	> 100	> 100		> 100	> 100

— PubChem BioAssay (NCI)
